Columns and labels:
Cytochrome P450 2C19 = Cytochrome P450 2C19 (Homo sapiens, UniProt P33261); test: Inhibition of CYP2C19 in human liver microsomes preincubated for 10 mins followed by NADPH addition measured after 10 mins by LC-MS/MS analysis; type: ADME
[1] = Drug uptake in Wistar rat spleen at 6 mg/kg, iv measured after 12 hrs; type: ADME, organism-based; details: in vivo
[2] = Drug uptake in Wistar rat pancreas at 6 mg/kg, iv measured after 8 hrs; type: ADME, organism-based; details: in vivo
[3] = Drug uptake in Wistar rat brain at 6 mg/kg, iv measured after 8 hrs; type: ADME, organism-based; details: in vivo
[4] = Drug excretion in Wistar rat feces at 4 mg/kg, iv measured after 108 hrs; type: ADME, organism-based; details: faeces, read-out: Drug excretion
[5] = Drug excretion in Wistar rat urine at 4 mg/kg, iv measured after 108 hrs; type: ADME, organism-based; details: read-out: Drug excretion
[6] = Protein binding in human plasma at 2 uM after 4 hrs by LC-MS/MS analysis; type: ADME, cell-free; details: read-out: PPB (converted)
[7] = Drug uptake in Wistar rat small intestine at 6 mg/kg, iv measured after 4 hrs; type: ADME, organism-based; details: in vivo
[8] = Drug uptake in Wistar rat large intestine at 6 mg/kg, iv measured after 8 hrs; type: ADME, organism-based; details: in vivo
Rattus norvegicus [9] = test: AUC (0 to infinity) in Wistar rat at 8 mg/kg, iv; type: ADME, organism-based; design: dose 8 mg/kg, route intravenous, time infinity; details: in vivo
[10] = Stability in rat plasma at 1 uM after 90 mins by LC-MS/MS analysis; type: ADME, cell-free; details: read-out: Stability
[11] = Drug uptake in Wistar rat brain at 6 mg/kg, iv measured after 0.5 hrs; type: ADME, organism-based; details: in vivo
[12] = Drug excretion in Wistar rat urine at 4 mg/kg, iv measured after 12 hrs; type: ADME, organism-based; details: read-out: Drug excretion
Mus musculus [13] = test: Toxicity in nude mouse xenografted with human NCI-H460 cells assessed as body weight at 9 mg/kg, iv administered once in every 2 days for 14 consecutive days (reference value: 20.6 +/- 1.5 g); type: organism-based; details: in vivo, 48 h
[14] = Drug uptake in Wistar rat kidney at 6 mg/kg, iv measured after 4 hrs; type: ADME, organism-based; details: in vivo
[15] = Drug uptake in Wistar rat heart at 6 mg/kg, iv measured after 12 hrs; type: ADME, organism-based; details: in vivo
[16] = Drug excretion in Wistar rat urine at 4 mg/kg, iv measured after 72 hrs; type: ADME, organism-based; details: read-out: Drug excretion
[17] = Drug uptake in Wistar rat small intestine at 6 mg/kg, iv measured after 1 hr; type: ADME, organism-based; details: in vivo
NCI-H460 [18] = test: Antitumor activity against human NCI-H460 cells xenografted in nude mouse assessed as inhibition of tumor volume at 9 mg/kg, iv administered once in every 2 days for 14 consecutive days relative to control; type: functional; details: 48 h
[19] = Drug uptake in Wistar rat heart at 6 mg/kg, iv measured after 4 hrs; type: ADME, organism-based; details: in vivo
[20] = Drug excretion in Wistar rat feces at 4 mg/kg, iv measured after 72 hrs; type: ADME, organism-based; details: faeces, read-out: Drug excretion
[21] = Stability in rat plasma at 1 uM after 60 mins by LC-MS/MS analysis; type: ADME, cell-free; details: read-out: Stability
[22] = Drug uptake in Wistar rat lungs at 6 mg/kg, iv measured after 0.5 hrs; type: ADME, organism-based, Lung; details: in vivo
[23] = Drug uptake in Wistar rat pancreas at 6 mg/kg, iv measured after 1 hr; type: ADME, organism-based; details: in vivo
[24] = Drug excretion in Wistar rat feces at 4 mg/kg, iv measured after 2 hrs; type: ADME, organism-based; details: faeces, read-out: Drug excretion
Mus musculus [25] = test: Toxicity in Balb/c mouse assessed as mortality at 10 to 15 mg/kg, iv administered three times in a day every 2 days for 15 consecutive days; type: organism-based; details: in vivo, 48 h
[26] = Stability in rat liver microsomes at 50 uM after 60 mins in presence of NADPH by LC-MS/MS analysis; type: ADME, microsome; details: read-out: Stability
[27] = Clearance in Wistar rat at 4 mg/kg, iv; type: ADME, organism-based; details: in vivo
[28] = MRTlast in Wistar rat at 4 mg/kg, iv; type: ADME, organism-based; details: in vivo
Rattus norvegicus [29] = test: Clearance in Wistar rat at 8 mg/kg, iv; type: ADME, organism-based; details: in vivo
[30] = Drug uptake in Wistar rat pancreas at 6 mg/kg, iv measured after 4 hrs; type: ADME, organism-based; details: in vivo
[31] = Stability in rat liver microsomes at 50 uM after 10 mins in presence of NADPH by LC-MS/MS analysis; type: ADME, microsome; details: liver microsomes, read-out: Stability
[32] = Drug uptake in Wistar rat lungs at 6 mg/kg, iv measured after 1 hr; type: ADME, organism-based, Lung; details: in vivo
[33] = Drug excretion in Wistar rat urine at 4 mg/kg, iv measured after 4 hrs; type: ADME, organism-based; details: read-out: Drug excretion
Cytochrome P450 2D6 = Cytochrome P450 2D6 (Homo sapiens, UniProt P10635); test: Inhibition of CYP2D6 in human liver microsomes preincubated for 10 mins followed by NADPH addition measured after 10 mins by LC-MS/MS analysis; type: ADME
Cytochrome P450 2D6, sequence (P10635 whole entry): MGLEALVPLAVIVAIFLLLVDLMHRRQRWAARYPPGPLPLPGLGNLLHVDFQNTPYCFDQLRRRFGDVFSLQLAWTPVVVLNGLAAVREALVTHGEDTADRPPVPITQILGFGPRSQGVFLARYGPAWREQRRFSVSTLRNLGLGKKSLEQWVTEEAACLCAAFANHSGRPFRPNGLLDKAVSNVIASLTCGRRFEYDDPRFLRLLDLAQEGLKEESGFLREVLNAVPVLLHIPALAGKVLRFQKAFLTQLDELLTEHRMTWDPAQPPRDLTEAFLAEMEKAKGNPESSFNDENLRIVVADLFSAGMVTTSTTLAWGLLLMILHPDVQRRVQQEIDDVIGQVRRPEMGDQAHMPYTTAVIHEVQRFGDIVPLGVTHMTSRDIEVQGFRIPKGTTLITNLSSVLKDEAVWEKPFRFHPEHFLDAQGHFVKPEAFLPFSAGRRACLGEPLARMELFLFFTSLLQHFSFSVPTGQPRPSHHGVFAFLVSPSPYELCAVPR

[34] = Drug excretion in Wistar rat urine at 4 mg/kg, iv measured after 8 hrs; type: ADME, organism-based; details: read-out: Drug excretion
[35] = Cmax in Wistar rat at 4 mg/kg, iv; type: ADME, organism-based; design: dose 4 mg/kg, route intravenous; details: in vivo
[36] = Drug uptake in Wistar rat spleen at 6 mg/kg, iv measured after 0.5 hrs; type: ADME, organism-based; details: in vivo
[37] = Stability in rat liver microsomes at 50 uM after 120 mins in presence of NADPH by LC-MS/MS analysis; type: ADME, microsome; details: read-out: Stability
[38] = Drug uptake in Wistar rat spleen at 6 mg/kg, iv measured after 1 hr; type: ADME, organism-based; details: in vivo
[39] = Drug excretion in Wistar rat feces at 4 mg/kg, iv measured after 48 hrs; type: ADME, organism-based; details: faeces, read-out: Drug excretion
[40] = Protein binding in Beagle dog plasma at 2 uM after 4 hrs by LC-MS/MS analysis; type: ADME, cell-free, Canis lupus familiaris; details: read-out: PPB (converted)
Mus musculus [41] = test: Toxicity in nude mouse xenografted with human NCI-H460 cells assessed as body weight at 3 mg/kg, iv administered once in every 2 days for 14 consecutive days (reference value: 20.6 +/- 1.5 g); type: organism-based; details: in vivo, 48 h
[42] = Drug excretion in Wistar rat urine at 4 mg/kg, iv measured after 24 hrs; type: ADME, organism-based; details: read-out: Drug excretion
[43] = Apparent volume of distribution in Wistar rat at 8 mg/kg, iv; type: ADME, organism-based; details: in vivo, read-out: Vz
[44] = Drug uptake in Wistar rat brain at 6 mg/kg, iv measured after 12 hrs; type: ADME, organism-based; details: in vivo
[45] = Drug uptake in Wistar rat lungs at 6 mg/kg, iv measured after 8 hrs; type: ADME, organism-based, Lung; details: in vivo
[46] = Drug uptake in Wistar rat large intestine at 6 mg/kg, iv measured after 4 hrs; type: ADME, organism-based; details: in vivo
[47] = Drug uptake in Wistar rat liver at 6 mg/kg, iv measured after 8 hrs; type: ADME, organism-based; details: in vivo
Mus musculus [48] = test: Toxicity in nude mouse xenografted with human NCI-H460 cells assessed as body weight at 6 mg/kg, iv administered once in every 2 days for 14 consecutive days cotreated with 50 mg/kg gefitinib once daily for 14 consecutive days (reference value: 20.6 +/- 1.5 g); type: organism-based; details: in vivo, 48 h
[49] = Toxicity in Balb/c mouse administered iv three times in a day every 2 days for 15 consecutive days; type: organism-based; details: in vivo
NCI-H460 [50] = test: Antitumor activity against human NCI-H460 cells xenografted in nude mouse assessed as inhibition of tumor volume at 3 mg/kg, iv administered once in every 2 days for 14 consecutive days relative to control; type: functional; details: 48 h
[51] = Stability in rat liver microsomes at 50 uM after 40 mins in presence of NADPH by LC-MS/MS analysis; type: ADME, microsome; details: read-out: Stability

Cytochrome P450 2C19, sequence (P33261 whole entry): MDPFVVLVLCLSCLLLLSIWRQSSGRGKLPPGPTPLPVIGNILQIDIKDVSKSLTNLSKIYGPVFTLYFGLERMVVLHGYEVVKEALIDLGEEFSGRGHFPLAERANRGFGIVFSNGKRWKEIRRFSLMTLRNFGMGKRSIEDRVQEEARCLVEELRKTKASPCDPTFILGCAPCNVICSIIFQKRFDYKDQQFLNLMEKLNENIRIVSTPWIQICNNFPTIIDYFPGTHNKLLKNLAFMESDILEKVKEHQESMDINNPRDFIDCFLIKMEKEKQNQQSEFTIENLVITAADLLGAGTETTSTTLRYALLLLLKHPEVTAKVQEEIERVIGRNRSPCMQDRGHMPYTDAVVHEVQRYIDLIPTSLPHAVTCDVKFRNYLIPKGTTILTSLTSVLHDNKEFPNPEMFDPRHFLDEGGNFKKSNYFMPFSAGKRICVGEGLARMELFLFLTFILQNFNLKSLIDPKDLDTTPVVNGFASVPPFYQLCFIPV

Compound: [2H]/C(c1nc[nH]c1C(C)(C)C)=c1/[nH]c(=O)/c(=C/c2ccccc2)[nH]c1=O
- IC50 (Cytochrome P450 2C19): 3.81 µM
- Drug uptake [1]: 287.3 ng/mL/g
- Drug uptake [2]: 399 ng/mL/g
- Drug uptake [3]: 144.8 ng/mL/g
- dose excreted at 108 h [4]: 6.83%
- dose excreted at 108 h [5]: 0.67%
- fraction unbound at 4 h, 2 µM [6]: 0.021
- Drug uptake [7]: 336.9 ng/mL/g
- Drug uptake [8]: 1188.5 ng/mL/g
- AUC (Rattus norvegicus [9]): 5.80824 µg·h/mL
- remaining at 1.5 h, 1 µM [10]: 99.3%
- Drug uptake [11]: 1756.2 ng/mL/g
- dose excreted at 12 h [12]: 0.14%
- Activity (Mus musculus [13]): 19.9 g
- Drug uptake [14]: 3570.8 ng/mL/g
- Drug uptake [15]: 54.7 ng/mL/g
- dose excreted at 72 h [16]: 0.5%
- Drug uptake [17]: 1128.6 ng/mL/g
- inhibition in vivo at 9 mg/kg (NCI-H460 [18]): 68.2%
- Drug uptake [19]: 567.3 ng/mL/g
- dose excreted at 72 h [20]: 6.23%
- remaining at 1 h, 1 µM [21]: 94.3%
- Drug uptake [22]: 13471.1 ng/mL/g
- Drug uptake [23]: 4538.9 ng/mL/g
- dose excreted at 2 h [24]: 0%
- Activity (Mus musculus [25]): Non-Toxic
- remaining at 1 h, 50 µM [26]: 47.1%
- clearance [27]: 4.28 L/h/kg
- MRT last [28]: 1.76 h
- CL (Rattus norvegicus [29]): 3.87702 L/h/kg
- Drug uptake [30]: 1366.3 ng/mL/g
- remaining at 10 min, 50 µM [31]: 80.6%
- Drug uptake [32]: 158342.2 ng/mL/g
- dose excreted at 4 h [33]: 0.27%
- IC50 (Cytochrome P450 2D6): 18.4 µM
- dose excreted at 8 h [34]: 0.13%
- Cmax [35]: 4.42 µg/mL
- Drug uptake [36]: 4808.8 ng/mL/g
- remaining at 2 h, 50 µM [37]: 31.1%
- Drug uptake [38]: 7146.9 ng/mL/g
- dose excreted at 48 h [39]: 6.1%
- fraction unbound at 4 h, 2 µM [40]: 0.027
- Activity (Mus musculus [41]): 20.5 g
- dose excreted at 24 h [42]: 0.2%
- Vd [43]: 16.2 L/kg
- Drug uptake [44]: 83 ng/mL/g
- Drug uptake [45]: 41048.8 ng/mL/g
- Drug uptake [46]: 359 ng/mL/g
- Drug uptake [47]: 1684.3 ng/mL/g
- Activity (Mus musculus [48]): 18.5 g
- MTD at 48 h [49]: 15 mg/kg
- inhibition in vivo at 3 mg/kg (NCI-H460 [50]): 46.9%
- remaining at 40 min, 50 µM [51]: 56.5%

— ChEMBL document CHEMBL4229536, “In vitro and in vivo pharmacokinetic and pharmacodynamic study of MBRI-001, a deuterium-substituted plinabulin derivative as a potent anti-cancer agent” (Bioorg Med Chem, 2018)
